Key:
acute pneumonia = assay: Acute pneumonia incidence in calves fed 2′FL-supplemented calf milk replacer versus placebo (standard CMR); type: in vivo, Holstein Friesian calves (bovine)
Description: (§1) Holstein Friesian calves (2-3 week-old, 95% male) were transported from different farms to the experimental facility of Denkavit (Voorthuizen, The Netherlands) where the animals were reared. The experiment was performed in two trial rounds.
(§2) The calves were randomly and gender-equally divided in two groups based on experimental calf milk replacer: group A (placebo-standard calf milk replacer (CMR) powder of the farm) and group B (standard CMR powder supplemented with 0.005% drywt. 2′-fucosyllactose (2′FL, see Example 1). The calf milk replacer was administered as a liquid to the calves (water was added to the CMR powder to obtain 150 gram CMR powder per liter liquid CMR). Each group involved […], assigned into 12 rows. Each row contained 4 pens, where six calves were living in one pen.
(§3) 2′-fucosyllactose was supplied to calves via CMR (major components are presented in Table 1) during the whole trial, lasting 6 months. The Start CMR was given from arrival till week 6, which then switched to the Gold Alfa CMR up to day 136. The remaining time calves were fed with the Omega CMR. Solid feed (concentrates) was introduced gradually from arrival, starting with the Avance Alfa up till day 126, then replaced by the Avance Omega till the end of the experiment. Feed was provided ad libitum to calves twice a day (morning and evening) and were recorded daily based on rows (concentrates, straw, corn silage) or groups (CMR) consumption.
(§4) The calves were randomly and gender-equally divided in two groups based on experimental calf milk replacer (CMR): group A (placebo-standard CMR powder of the farm), group B (standard CMR powder supplemented with 0.005% drywt. 2′FL). The calf milk replacer was administered as a liquid to the calves (water was added to the CMR powder to obtain 150 gram CMR powder per liter liquid CMR). Each group involved 100 calves, assigned into four rows (25 calves per row) of two compartment blocks. Each row contained five pens, where four to six calves were living in one pen.
(§5) Starting from the day of arrival, calves received standard calf milk replacer (CMR) during a period of 9 weeks. Group A only received the CMR, while the CMR supplied to groups B was supplemented with 0.005% drywt. 2′FL. Calf starter (concentrates) and straw were introduced gradually from day 6 till the end of the experiment (12 weeks) while calves had access to corn silage at weeks 11 and 12. Feed were provided ad libitum to calves twice a day (morning and evening) and were recorded daily based on rows (concentrates, straw, corn silage) or groups (CMR) consumption.
Calves were followed up by the farm staffs since arrival till the end of the trial. Fecal consistency in scale 1-4 (Larson et al., 1977, J. Dairy Science, 60 (6): p. 989-991) was recorded daily for the first ten days since arrival. Number of mortalities and signs of adverse effects were registered daily. The animals were treated prophylactically or metaphylactically (herd treatment) with 1 g oxytetracycline 100% (at day 4), 0.5 g Doxylin 50% WSP and 0.8 g bromhexine 2% (at day 13), and 3.1 ml Tilmicosol 250 mg/ml (at day 24) to prevent and/or treat acute lung inflammation. Individual treatments were followed by remark of the farm staffs and diagnostic of farm veterinary practitioners. Disease incidences and medicinal usage based on individual treatments were recorded to compare between treatment groups. Live weight of the animals was monitored at arrival (d1), two weeks (W2), six weeks (W6), ten weeks (W10) and 12 weeks (W12) and 17 weeks (W17) since arrival. Feed conversion ratio (FCR) of each period was computed based on the input of daily weight gain and daily feed intake. […]

diarrhea = assay: Diarrhea incidence in calves fed 2′FL-supplemented calf milk replacer versus placebo (standard CMR); type: in vivo, Holstein Friesian calves (bovine); conditions: for Diarrhea cases: group B, 0.005% drywt. 2′FL in CMR
Description: as §1, §2, §3
The calves were randomly and gender-equally divided in two groups based on experimental calf milk replacer (CMR): group A (placebo-standard CMR powder of the farm), group B (standard CMR powder supplemented with 0.005% drywt. 2′FL). […]
Starting from the day of arrival, calves received standard calf milk replacer (CMR) during a period of 9 weeks. […] Feed were provided ad libitum to calves twice a day (morning and evening) and were recorded daily based on rows (concentrates, straw, corn silage) or groups (CMR) consumption.
Calves were followed up by the farm staffs since arrival till the end of the trial. Fecal consistency in scale 1-4 (Larson et al., 1977, J. Dairy Science, 60 (6): p. 989-991) was recorded daily for the first ten days since arrival. […] Disease incidences and medicinal usage based on individual treatments were recorded to compare between treatment groups. Live weight of the animals was monitored at arrival (d1), two weeks (W2), six weeks (W6), ten weeks (W10) and 12 weeks (W12) and 17 weeks (W17) since arrival. […]
(§6) Odds ratios and risk ratios of the pneumonia and diarrhea incidence were evaluated with the epitools R package using the Wald test (cran.r-project.org/web/packages/epitools/epitools.pdf). […]

[1] = Mortality and adverse effects in calves (health and safety observation); type: in vivo, Holstein Friesian calves (bovine)
Description: as §1, §2, §3, §4, §5
Calves were followed up by the farm staffs since arrival till the end of the trial. Fecal consistency in scale 1-4 (Larson et al., 1977, J. Dairy Science, 60 (6): p. 989-991) was recorded daily for the first ten days since arrival. Number of mortalities and signs of adverse effects were registered daily. […] Disease incidences and medicinal usage based on individual treatments were recorded to compare between treatment groups. Live weight of the animals was monitored at arrival (d1), two weeks (W2), six weeks (W6), ten weeks (W10) and 12 weeks (W12) and 17 weeks (W17) since arrival. […]
as §6

jejunum = assay: Jejunal RNAseq (transcriptomics), Gene Ontology enrichment analysis of differentially expressed genes, 2′FL versus placebo; type: in vivo, Bos taurus (calves); conditions: day 71 (W11)
Description: One healthy and middle weight calf of one pen per group was picked for euthanization in the slaughterhouse at day 71 (W11) (8 calves in total, 4 per group). A 20 cm segment of jejunum without Peyer's patch was excised and washed three times with physiological serum using a 30 ml syringe. A small segment (2-3 mm) was further excised and stored in 2 ml RNA protect tissue reagent (Qiagen) containing RNA preservation buffer for transportation at room temperature before long-term storage at −80° C.
Jejunal specimens stored in RNA protect tissue reagent were excised further to transfer 50 mg tissue into 2 ml tubes. The tissues were disrupted and homogenized using one stainless steel bead 5 mm in 900 μl QIAzol lysis reagent (QIAgen) in combination with a FASTPREP® 24 device. The homogenates were further manipulated according to the guidance of the manufacturer of the RNeasy plus universal tissue mini kit (QIAgen). The total purified RNA were eluted in 40 μl and quickly checked for the concentration and quality using Nanodrop (Implen NANOPHOTOMETER®) before storage at −80° C.
Total RNA was submitted to Azenta (Genewiz, Germany) to perform RNA sequencing. The total RNA was checked again for quality and concentration using Qubit and fragment analyzer before the mRNA were selected for polyA library preparation and sequenced using the ILLUMINA® Novaseq™ 2×150 bp technology platform guaranteed 20 million paired-end reads per samples (40 million reads).
RNA sequencing reads were quality-checked with fastqc (bioinformatics.babraham.ac.uk/projects/fastqc/) and trimmed with Trimmomatic (Bolger et al., 2014, Bioinformatics 30 (15): p. 2114-2120). Reads were aligned to the cow reference (Bos_taurus_UMD_3.1.1) using the genome alignment method in STAR (Dobin et al., 2013, Bioinformatics 29 (1): p. 15-21); Gene expression was quantified by featureCounts (Liao et al., 2014, Bioinformatics 30 (7): p. 923-930) and differential expression analysis was performed using DEseq2 (Love et al., 2014, Genome Biol. 15 (2): 550). Enrichment analysis of differential expressed was done in clusterProfiler (Wu et al., 2021, Innovation 2 (3): 100141) based on Gene Ontology.

## 2′-fucosyllactose [2′FL]
Acute pneumonia; round 1 (veal calf), 0.005% drywt. 2′FL in CMR
  Relative risk of getting acute pneumonia, group B versus placebo: 0.86
Acute pneumonia; round 1 (veal calf), group B, 0.005% drywt. 2′FL in CMR, 6 months, out of 290 calves, placebo 111 cases
  Acute pneumonia cases: 96 cases
Acute pneumonia; round 2 (rearing calf), 0.005% drywt. 2′FL in CMR
  Relative risk of getting acute pneumonia, group B versus placebo: 0.63
Acute pneumonia; round 2 (rearing calf), group B, 0.005% drywt. 2′FL in CMR for 9 weeks, 12-week trial, 100 calves per group, placebo 27 cases
  Acute pneumonia cases: 17 cases
Acute pneumonia; round 2 (rearing calf), group B, placebo 27%
  Acute pneumonia cases, share of calves: 17%
Acute pneumonia; rounds 1 and 2 integrated, standard CMR (placebo) versus 2′FL supplemented CMR, Mantel-Haenszel
  Common odds ratio of acute pneumonia: 1.35
diarrhea; round 1 (veal calf)
  Relative risk of getting diarrhea, group B versus placebo: 0.71
diarrhea; round 1 (veal calf), out of 290 calves, placebo 51 cases
  Diarrhea cases: 36 cases
diarrhea; round 1 (veal calf), standard CMR (placebo) versus 2′FL supplemented CMR
  Odds ratio associated with diarrhea: 1.51
diarrhea; round 2 (rearing calf), 100 calves per group, placebo 1 case
  Diarrhea cases: 0 cases
[1]; registered by the farm staffs, target animals (calves), both rounds
  Adverse effects: no adverse effects
[1]; round 1, 6 months, group B (2′FL), placebo 4.14%, 262800 min
  Mortality: 3.1%
[1]; round 1, 6 months, group B (2′FL), placebo 12 (4.14%)
  Calves dead: 9 calves
[1]; round 1, 6 months, Kaplan-Meier test
  Mortality, difference between groups: no significant difference in mortality between the experimental groups
[1]; round 2, 12 weeks, 7/400 calves died in all groups
  Mortality, difference between groups: no significant difference in mortality between the different groups
jejunum; 4 calves per group
  Immune responses versus placebo (enrichment analysis): enhanced immune responses in several ways (T cell activation, cell differentiation, cell-cell adhesion, adaptive immune response)
jejunum; group B versus placebo
  p. adjust, up-regulated gene ontology process ADAPTIVE_IMMUNE_RESPONSE: 4.15E−06
  p. adjust, up-regulated gene ontology process ADAPTIVE_IMMUNE_RESPONSE_BASED_ON_SOMATIC_RECOMBINATION_OF_IMMUNE_RECEPTORS_BUILT_FROM_IMMUNOGLOBULIN_SUPERFAMILY_DOMAINS: 0.00573
  p. adjust, up-regulated gene ontology process EXTERNAL_SIDE_OF_PLASMA_MEMBRANE: 0.000673
  p. adjust, up-regulated gene ontology process HETEROTYPIC_CELL_CELL_ADHESION: 0.003478
  p. adjust, up-regulated gene ontology process LEUKOCYTE_DIFFERENTIATION: 0.003462
  p. adjust, up-regulated gene ontology process LYMPHOCYTE_MEDIATED_IMMUNITY: 0.003478
  p. adjust, up-regulated gene ontology process MONONUCLEAR_CELL_DIFFERENTIATION: 0.000274
  p. adjust, up-regulated gene ontology process NEGATIVE_REGULATION_OF_ADAPTIVE_IMMUNE_RESPONSE: 0.002368
  p. adjust, up-regulated gene ontology process NEGATIVE_REGULATION_OF_IMMUNE_SYSTEM_PROCESS: 0.001169
  p. adjust, up-regulated gene ontology process NEGATIVE_REGULATION_OF_LEUKOCYTE_MEDIATED_IMMUNITY: 0.002368
  p. adjust, up-regulated gene ontology process NEGATIVE_REGULATION_OF_LYMPHOCYTE_MEDIATED_IMMUNITY: 0.00552
  p. adjust, up-regulated gene ontology process POSITIVE_THYMIC_T_CELL_SELECTION: 0.00573
  p. adjust, up-regulated gene ontology process POSITIVE_T_CELL_SELECTION: 0.003206
  p. adjust, up-regulated gene ontology process REGULATION_OF_ADAPTIVE_IMMUNE_RESPONSE: 0.003206
  p. adjust, up-regulated gene ontology process REGULATION_OF_LEUKOCYTE_MEDIATED_IMMUNITY: 0.003478
  p. adjust, up-regulated gene ontology process REGULATION_OF_T_CELL_ACTIVATION: 0.003668
  p. adjust, up-regulated gene ontology process T_CELL_ACTIVATION: 9.06E−06
  p. adjust, up-regulated gene ontology process T_CELL_DIFFERENTIATION: 0.000662
  p. adjust, up-regulated gene ontology process T_CELL_PROLIFERATION: 0.002368
  p. adjust, up-regulated gene ontology process T_CELL_RECEPTOR_COMPLEX: 0.000274
